Source: patent US6743429B2 (Sherbrooke University, priority 1999, dated 2004)
Where no end group is shown, it is not given here.

Tests used:
sheep = experiment: Haemodynamic parameters and baseline SRL after inhaled administration in sheep; assay type: in vivo; settings: inhaled increasing doses (CGRP 0.1, 0.25, 0.5 and 1.0 mg/2 ml)
Description: (§1) Eighteen sheep with a mean weight of 35 kg (range: 24 to 52 kg) were used for this study. […] Ten of these animals were defined as non-allergic and 8 as allergic, based on the absence or presence of both early and late airway responses after a standard inhalation challenge with Ascaris suum antigen. All sheep were allowed a 4-week recovery period after the allergen challenge before experimentation began. For each of the procedures hereafter presented, the unsedated animals were restrained on a standard shopping cart in the prone position and their heads were immobilized. […]
Briefly, pleural pressure was estimated via the esophageal balloon catheter (filled with 1 ml of air), which was positioned 5 to 10 cm from the gastroesophageal junction. […] Lateral pressure in the trachea was measured with a sidehole catheter (inner diameter=2.5 mm) advanced through and positioned distal to the tip of the endotracheal tube. […] The transpulmonary pressure and flow signals were recorded on a Hewlett Packard (model 7754B, Mass. USA) multichannel recorder, which was linked to a PC 386 Personal Computer (IBM Equipment, Montreal, Quebec) for online calculation of mean RL by dividing the change in transpulmonary pressure by the change in flow at mid-tidal volume (Vt) (obtained by digital integration). […]

allergic sheep [1] = experiment: Ascaris suum antigen-induced early and late increases in pulmonary resistance in sheep; assay type: in vivo
Description: as §1
(§2) The techniques used for investigating airway mechanics were again well-validated and standardized procedures (as is usually the case with large mammals). […] Lateral pressure in the trachea was measured with a sidehole catheter (inner diameter=2.5 mm) advanced through and positioned distal to the tip of the endotracheal tube. […] The transpulmonary pressure and flow signals were recorded on a Hewlett Packard (model 7754B, Mass. USA) multichannel recorder, which was linked to a PC 386 Personal Computer (IBM Equipment, Montreal, Quebec) for online calculation of mean RL by dividing the change in transpulmonary pressure by the change in flow at mid-tidal volume (Vt) (obtained by digital integration). […]

allergic sheep [2] = experiment: Metacholine-induced non-specific airway responsiveness in allergic sheep; assay type: in vivo; settings: inhaled 0.5 mg in 2 ml PBS
Description: as §1, §2

allergic guinea pigs = experiment: Allergen (ovalbumin)-induced bronchospasm (PIP) in allergic guinea pigs; assay type: in vivo, guinea pig; settings: CGRP receptor antagonist given 5 minutes before the allergen challenge
Description: Guinea pigs were anaesthetized with xylazine (20 mg/kg, i.m.) and ketamine hydrochloride (130 mg/kg, i.m.). The jugular vein and trachea were cannulated and animals were mechanically ventilated with a constant-volume rodent respirator (Havard, model 683) delivering a tidal volume of 5.5 ml/kg at a frequency of 60 cycles/min via the tracheal cannula. Airway resistance was measured by the overflow technique according to well-validated and standardized procedures. Briefly, ventilation overflow (i.e., the pulmonary insufflation pressure or PIP), was recorded at the side arm of the tracheal cannula by means of a differential pressure transducer (Gould P23 ID) connected to a Grass polygraph (model 7D). Airway responsiveness was assessed by measuring the changes in PIP following i.v. injections of the agonists. Changes in PIP, which were taken as an index of changed airway resistance, were measured and expressed in mm of mercury (mm Hg). Each agonist was injected through the jugular vein cannula in a volume of 100 μl followed by a washout with 200 μl of heparinized-saline (100 units/ml).
The resulting increase in PIP (bronchoconstriction) was compared to responses obtained in control animals i.e. in allergic guinea pigs, which received only saline solution 5 minutes before the i.v. injection of ovalbumin. […]

Molecule: CC(C)(C)NCC(O)c1ccc(O)c(CO)c1 (stereo not drawn) [salbutamol]
- heart rate (sheep): increase in heart rate
- mean arterial blood pressure (MAP) (sheep): hypotension
- effect on late phase bronchoconstriction to Ascaris suum antigen (allergic sheep [1]; aerosol 0.5 mg in 2 ml PBS pretreatment): does not affect
- reduction of the peak of the early phase response to Ascaris suum antigen (allergic sheep [1]; aerosol 0.5 mg in 2 ml PBS, 20 minutes before antigen challenge): 45%
- protection against metacholine-induced increase in airway resistance (allergic sheep [2]): 65%

Molecule: hCGRP(8-37) (VTHRLAGLLSRSGGVVKNNFVPTNVGSKAF; ends and bridges not checked; UniProt P06881 90-119, looked up, fragment) [a CGRP receptor antagonist]
- magnitude of the allergen-induced bronchospasm versus untreated animals (allergic guinea pigs): significant increase
